According to patent US6936585B2, “Corticotropin releasing factor 2 receptor agonists” (priority 2002, dated 2005):
Peptide text beside a SMILES is read from it.

How the values were obtained:
[1] = target: T1, CRF1R (Homo sapiens, UniProt P34998); test: CRF1R agonist activation (EC50 / Emax), called comparative CRF binding; format: cell-based; settings: for Emax: read-out: CRF1R Emax; for EC50: read-out: CRF1R EC50
T1 sequence (P34998 24-415): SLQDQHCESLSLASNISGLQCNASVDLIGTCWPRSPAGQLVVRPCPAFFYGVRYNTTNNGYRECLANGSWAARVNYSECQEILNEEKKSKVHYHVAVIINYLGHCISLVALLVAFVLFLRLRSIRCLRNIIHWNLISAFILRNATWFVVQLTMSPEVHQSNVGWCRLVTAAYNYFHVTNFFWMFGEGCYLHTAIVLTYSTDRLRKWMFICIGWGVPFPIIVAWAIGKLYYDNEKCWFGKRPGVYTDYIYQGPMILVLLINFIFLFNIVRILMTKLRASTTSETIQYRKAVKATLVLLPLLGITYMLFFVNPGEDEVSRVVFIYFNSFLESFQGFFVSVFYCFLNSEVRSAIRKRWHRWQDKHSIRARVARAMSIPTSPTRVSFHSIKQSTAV
How it was run: (§1)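 Cells expressing human CRF1R or CRF2R are exposed to peptide or vehicle control, and receptor activation is read as cAMP induction, measured in cell lysates or via a CRE-linked reporter gene.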

[2] = target: T2, CRF2R (Homo sapiens, UniProt Q13324); test: CRF2R agonist activation (EC50 / Emax), called comparative CRF binding; format: cell-based; settings: for Emax: read-out: CRF2R Emax; for EC50: read-out: CRF2R EC50
T2 sequence (Q13324 1-411): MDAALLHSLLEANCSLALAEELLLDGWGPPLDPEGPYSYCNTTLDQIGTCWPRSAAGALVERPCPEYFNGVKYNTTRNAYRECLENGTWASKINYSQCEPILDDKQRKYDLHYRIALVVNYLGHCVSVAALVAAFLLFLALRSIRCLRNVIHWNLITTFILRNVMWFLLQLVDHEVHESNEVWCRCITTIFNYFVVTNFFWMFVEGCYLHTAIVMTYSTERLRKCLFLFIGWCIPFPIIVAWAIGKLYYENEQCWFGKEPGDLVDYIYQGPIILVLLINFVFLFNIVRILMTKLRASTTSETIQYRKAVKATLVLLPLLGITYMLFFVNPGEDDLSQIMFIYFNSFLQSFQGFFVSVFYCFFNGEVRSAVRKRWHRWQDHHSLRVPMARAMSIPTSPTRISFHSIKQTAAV
How it was run: as §1

Row | SMILES | Emax [1] [%] | Emax [2] [%] | EC50 [1] [nM] | EC50 [2] [nM]
1 | CC[C@H](C)[C@H](NC(=O)[C@H](C)NC(=O)[C@H](CC(N)=O)NC(=O)[C@H](CCC(N)=O)NC(=O)[C@H](CCC(=O)O)NC(=O)[C@H](C)NC(=O)[C@H](CCCNC(=N)N)NC(=O)[C@H](CCC(=O)O)NC(=O)[C@H](CCCNC(=N)N)NC(=O)[C@H](CCC(N)=O)NC(=O)[C@H](CO)NC(=O)[C@H](CCC(N)=O)NC(=O)[C@@H](NC(=O)[C@H](CCCCN)NC(=O)[C@H](CCC(=O)O)NC(=O)[C@H](CC(C)C)NC(=O)[C@H](CCC(=O)O)NC(=O)[C@H](CC(C)C)NC(=O)[C@H](CC(C)C)NC(=O)[C@@H](NC(=O)[C@H](CCCNC(=N)N)NC(=O)[C@H](CC(C)C)NC(=O)[C@H](CC(C)C)NC(=O)[C@H](CC(C)C)NC(=O)[C@H](CC(C)C)NC(=O)[C@@H]1CCCN1C(=O)[C@H](CC(C)C)NC(=O)[C@H](CC(=O)O)NC(=O)[C@@H](NC(=O)[C@H](CO)NC(=O)[C@H](CC(C)C)NC(=O)[C@H](CO)NC(=O)[C@@H]1CCCN1C(=O)[C@H](CC(N)=O)NC(=O)[C@@H](N)CC(=O)O)[C@@H](C)CC)[C@@H](C)O)[C@@H](C)O)C(=O)N[C@H](C(=O)N[C@@H](Cc1ccccc1)C(=O)N[C@@H](C)C(=O)N[C@@H](CO)C(=O)N[C@H](C(N)=O)C(C)C)[C@@H](C)CC [compound 346] (H-DNPSLSIDLPLLLLRTLLELEKTQSQRERAEQNAIIFASV-NH2; N-terminus assumed) | 59 | 97.8 | – | –
2 | CC[C@H](C)[C@H](N)C(=O)N[C@H](C(=O)N[C@@H](CC(C)C)C(=O)N[C@@H](CO)C(=O)N[C@@H](CC(C)C)C(=O)N[C@@H](CC(=O)O)C(=O)N[C@H](C(=O)N1CCC[C@H]1C(=O)N[C@H](C(=O)NCC(=O)N[C@@H](CC(C)C)C(=O)N[C@@H](CC(C)C)C(=O)N[C@@H](CCC(N)=O)C(=O)N[C@H](C(=O)N[C@@H](CC(C)C)C(=O)N[C@@H](CC(C)C)C(=O)N[C@@H](CCC(=O)O)C(=O)N[C@@H](CCCCN)C(=O)N[C@@H](C)C(=O)N[C@@H](C)C(=O)N[C@@H](C)C(=O)N[C@@H](CCC(=O)O)C(=O)N[C@@H](C)C(=O)N[C@@H](CCC(=O)O)C(=O)N[C@@H](C)C(=O)N[C@@H](C)C(=O)N[C@@H](C)C(=O)N[C@@H](CCCCN)C(=O)N[C@@H](C)C(=O)N[C@@H](C)C(=O)N[C@@H](CCC(N)=O)C(=O)N[C@@H](CCC(=O)O)C(=O)N[C@@H](CCC(N)=O)C(=O)N[C@H](C(=O)N[C@@H](CC(C)C)C(=O)N[C@@H](C)C(=O)N[C@@H](Cc1c[nH]cn1)C(=O)N[C@H](C(N)=O)C(C)C)[C@@H](C)CC)[C@@H](C)CC)[C@@H](C)CC)C(C)C)C(C)C [compound 366] (H-IVLSLDVPIGLLQILLEKAAAEAEAAAKAAQEQILAHV-NH2) | 9 | 46 | – | –
3 | CC[C@H](C)[C@H](N)C(=O)N[C@H](C(=O)N[C@@H](CC(C)C)C(=O)N[C@@H](CO)C(=O)N[C@@H](CC(C)C)C(=O)N[C@@H](CC(=O)O)C(=O)N[C@H](C(=O)N1CCC[C@H]1C(=O)N[C@H](C(=O)NCC(=O)N[C@@H](CC(C)C)C(=O)N[C@@H](CC(C)C)C(=O)N[C@@H](CCC(N)=O)C(=O)N[C@H](C(=O)N[C@@H](CC(C)C)C(=O)N[C@@H](CC(C)C)C(=O)N[C@@H](CCC(=O)O)C(=O)N[C@@H](CCC(N)=O)C(=O)N[C@@H](C)C(=O)N[C@@H](CCCNC(=N)N)C(=O)N[C@@H](Cc1c[nH]cn1)C(=O)N[C@@H](C)C(=O)N[C@@H](C)C(=O)N[C@@H](C)C(=O)N[C@@H](Cc1c[nH]cn1)C(=O)N[C@@H](C)C(=O)N[C@@H](C)C(=O)N[C@@H](C)C(=O)N[C@@H](Cc1c[nH]cn1)C(=O)N[C@@H](C)C(=O)N[C@@H](CCC(N)=O)C(=O)N[C@@H](C)C(=O)N[C@@H](Cc1c[nH]cn1)C(=O)N[C@H](C(=O)N[C@@H](CC(C)C)C(=O)N[C@@H](C)C(=O)N[C@@H](Cc1c[nH]cn1)C(=O)N[C@H](C(N)=O)C(C)C)[C@@H](C)CC)[C@@H](C)CC)[C@@H](C)CC)C(C)C)C(C)C [compound 367] (H-IVLSLDVPIGLLQILLEQARHAAAHAAAHAQAHILAHV-NH2) | 6 | 18 | ≥ 1000 | ≥ 100
4 | CC[C@H](C)[C@H](N)C(=O)N[C@H](C(=O)N[C@@H](CC(C)C)C(=O)N[C@@H](CO)C(=O)N[C@@H](CC(C)C)C(=O)N[C@@H](CC(=O)O)C(=O)N[C@H](C(=O)N1CCC[C@H]1C(=O)N[C@H](C(=O)NCC(=O)N[C@@H](CC(C)C)C(=O)N[C@@H](CC(C)C)C(=O)N[C@@H](CCC(N)=O)C(=O)N[C@H](C(=O)N[C@@H](CC(C)C)C(=O)N[C@@H](CC(C)C)C(=O)N[C@@H](CCC(=O)O)C(=O)N[C@@H](CCC(N)=O)C(=O)N[C@@H](C)C(=O)N[C@@H](CCCNC(=N)N)C(=O)N[C@@H](Cc1c[nH]cn1)C(=O)N[C@@H](C)C(=O)N[C@@H](Cc1c[nH]cn1)C(=O)N[C@@H](C)C(=O)N[C@@H](Cc1c[nH]cn1)C(=O)N[C@@H](C)C(=O)N[C@@H](Cc1c[nH]cn1)C(=O)N[C@@H](C)C(=O)N[C@@H](Cc1c[nH]cn1)C(=O)N[C@@H](C)C(=O)N[C@@H](CCC(N)=O)C(=O)N[C@@H](C)C(=O)N[C@@H](Cc1c[nH]cn1)C(=O)N[C@H](C(=O)N[C@@H](CC(C)C)C(=O)N[C@@H](C)C(=O)N[C@@H](Cc1c[nH]cn1)C(=O)N[C@H](C(N)=O)C(C)C)[C@@H](C)CC)[C@@H](C)CC)[C@@H](C)CC)C(C)C)C(C)C [compound 369] (H-IVLSLDVPIGLLQILLEQARHAHAHAHAHAQAHILAHV-NH2) | 4 | 18 | – | –
5 | CC[C@H](C)[C@H](N)C(=O)N[C@H](C(=O)N[C@@H](CC(C)C)C(=O)N[C@@H](CO)C(=O)N[C@@H](CC(C)C)C(=O)N[C@@H](CC(=O)O)C(=O)N[C@H](C(=O)N[C@@H](CO)C(=O)N[C@H](C(=O)NCC(=O)N[C@@H](CC(C)C)C(=O)N[C@@H](CC(C)C)C(=O)N[C@@H](CCC(N)=O)C(=O)N[C@H](C(=O)N[C@@H](CC(C)C)C(=O)N[C@@H](CC(C)C)C(=O)N[C@@H](CCC(=O)O)C(=O)N[C@@H](CCC(N)=O)C(=O)N[C@@H](C)C(=O)N[C@@H](CCCNC(=N)N)C(=O)N[C@@H](C)C(=O)N[C@@H](CCCNC(=N)N)C(=O)N[C@@H](C)C(=O)N[C@@H](C)C(=O)N[C@@H](CCCNC(=N)N)C(=O)N[C@@H](CCC(=O)O)C(=O)N[C@@H](CCC(N)=O)C(=O)N[C@@H](C)C(=O)N[C@H](C(=O)N[C@H](C(=O)N[C@@H](CC(N)=O)C(=O)N[C@@H](C)C(=O)N[C@@H](CCCNC(=N)N)C(=O)N[C@H](C(=O)N[C@@H](CC(C)C)C(=O)N[C@@H](C)C(=O)N[C@@H](CCCNC(=N)N)C(=O)N[C@H](C(N)=O)C(C)C)[C@@H](C)CC)[C@@H](C)O)[C@@H](C)O)[C@@H](C)CC)[C@@H](C)CC)C(C)C)C(C)C [compound 370] (H-IVLSLDVSIGLLQILLEQARARAAREQATTNARILARV-NH2; N-terminus assumed) | 33 | 75 | ≥ 1000 | 51
6 | CC[C@H](C)[C@H](N)C(=O)N[C@H](C(=O)N[C@@H](CC(C)C)C(=O)N[C@@H](CO)C(=O)N[C@@H](CC(C)C)C(=O)N[C@@H](CC(=O)O)C(=O)N[C@H](C(=O)N1CCC[C@H]1C(=O)N[C@H](C(=O)N[C@@H](Cc1c[nH]cn1)C(=O)N[C@@H](CC(C)C)C(=O)N[C@@H](CC(C)C)C(=O)N[C@@H](CCC(N)=O)C(=O)N[C@H](C(=O)N[C@@H](CC(C)C)C(=O)N[C@@H](CC(C)C)C(=O)N[C@@H](CCC(=O)O)C(=O)N[C@@H](CCC(N)=O)C(=O)N[C@@H](C)C(=O)N[C@@H](CCCNC(=N)N)C(=O)N[C@@H](C)C(=O)N[C@@H](CCCNC(=N)N)C(=O)N[C@@H](C)C(=O)N[C@@H](C)C(=O)N[C@@H](CCCNC(=N)N)C(=O)N[C@@H](CCC(=O)O)C(=O)N[C@@H](CCC(N)=O)C(=O)N[C@@H](C)C(=O)N[C@H](C(=O)N[C@H](C(=O)N[C@@H](CC(N)=O)C(=O)N[C@@H](C)C(=O)N[C@@H](CCCNC(=N)N)C(=O)N[C@H](C(=O)N[C@@H](CC(C)C)C(=O)N[C@@H](C)C(=O)N[C@@H](CCCNC(=N)N)C(=O)N[C@H](C(N)=O)C(C)C)[C@@H](C)CC)[C@@H](C)O)[C@@H](C)O)[C@@H](C)CC)[C@@H](C)CC)C(C)C)C(C)C [compound 371] (H-IVLSLDVPIHLLQILLEQARARAAREQATTNARILARV-NH2; N-terminus assumed) | 22 | 97 | – | –
